# From paper PMC6089501 (Journal of Medicinal Chemistry, 2018)
# Where “and” joins values, the source holds several entries; their conditions need not be identical. Identical values can stand only once. Like-named read-outs stand apart in the source and are kept apart here.
# Assays:
# M. tuberculosis H37Rv [1] = test: microbe, parasite or virus in culture; type: cell-based, Mycobacterium tuberculosis; conditions: Mycobacterium tuberculosis, H37RV
# M. tuberculosis H37Rv [2] = tested on: M. tuberculosis H37Rv; design: species or system Mycobacterium tuberculosis; conditions: in vivo
# Vero cells [3] = conditions: read-out: VERO IC50
# Method: (§1) Compounds were solubilized in DMSO and assayed as a 10-point 3-fold serial dilution. Compounds were incubated with cells for 2 days at 37 °C, 5% CO2. CellTiter-Glo Reagent (Promega) was added and relative luminescent units (RLU) measured.
# [4] = female, C57 Black, mouse, in vivo, iv, 3 mg/kg
# Method: (§2) Test compound was dosed as a bolus solution intravenously at 3 mg of free base/kilogram (dose volume 5 mL/kg; dose vehicle Saline or 10% DMSO; 40% PEG400; 50% saline) to female C57 Black (n = 3) or dosed orally by gavage as a solution at 10 mg of free base/kilogram (dose volume 10 mL/kg; dose vehicle 10% DMSO; 40% PEG400; 50% distilled water) to female C57 Black (n = 3/dose level). Blood samples were taken from each mouse tail vein at predetermined time points postdose, mixed with two volumes of distilled water, and stored frozen until UPLC/MS/MS analysis. Pharmacokinetic parameters were derived from the blood concentration time curve using PK Solutions software v 2.0 (Summit Research Services, USA).
# [5] = Sprague-Dawley, rat, in vivo
# Method: (§3) Test compound was dosed orally by gavage at 5 mg of free base/kilogram (dose volume 5 mL/kg; dose vehicle 1.0% carboxy methyl cellulose, CMC) to male Sprague–Dawley Rats (n = 1 per time point). At predetermined time points, blood samples (100 μL) were taken from the hepatic portal vein into a tube containing EDTA. Immediately afterward, the remaining blood was taken by cardiac puncture into a separate tube containing EDTA to determine the concentration of compound reaching the systemic circulation. The blood was mixed with two volumes of distilled water and stored frozen until UPLC/MS/MS analysis. Pharmacokinetic parameters were derived from the blood concentration time curve using PK Solutions software v 2.0 (Summit Research Services, USA).
# [6] = tested on: Madin Darby Canine Kidney (MDCK)
# [7] = pH 2/6/7.4
# Method: (§4) Samples are stirred for 20 h and filtered through a 0.7 μm GF filter. The filtrate was analyzed by HPLC assay for concentration against DMSO standard curve.[40]
# [8] = C57 Black, mouse, in vivo, po
# Method: Analysis of 37 in Mouse Blood samples (10mg/kg PO and 3mg/kg IV)
# Vero cells [9] = test: cells; conditions: Chlorocebus sabaeus, read-out: VERO IC50
# Method: as §1
# in vivo [10] = conditions: female, C57 Black, mouse
# Method: as §2
# in vivo [11] = conditions: Sprague-Dawley, rat; for AUC(0-t) at 24 h: AUC 0–24
# Method: as §3
# physchem [12] = test: physchem
# in vitro = conditions: dog, MDCK-MDR1
# physchem [13] = test: physchem; remark: listed apart in the source
# Method: as §4
# M. tuberculosis H37Rv [14] = type: cell-based, Mycobacterium tuberculosis
compound,measurement,setting,value
"NC(=O)c1sc(N2CCOCC2)cc1OCCc1ccc(OC(F)(F)F)cc1 [Compound 37, 5-Morpholino-3-[2-[4-(trifluoromethoxy)phenyl]ethoxy]thiophene-2-carboxamide]",MIC,M. tuberculosis H37Rv [1]; read-out: H37Rv MIC,0.083 mg/L
same,MIC90,M. tuberculosis H37Rv [1]; read-out: MIC (MIC90),0.24 µM
same,MIC,M. tuberculosis H37Rv [1]; read-out: MIC WT,0.24 µM
same,IC90,M. tuberculosis H37Rv [1]; read-out: TB-IC90_OD GEOM_MEAN,0.217 µM
same,growth of the bacteria in the lungs compared to untreated mice (in words),M. tuberculosis H37Rv [2],able to inhibit the growth of the bacteria in the lungs
same,"log CFUs per mouse (lungs), individual mice",M. tuberculosis H37Rv [2],6.1 log CFU and 5.8 log CFU
same,"log CFUs per mouse (lungs), mean",M. tuberculosis H37Rv [2],6.0 log CFU
same,log reduction of colony forming unit (CFU) counts in the lungs,"M. tuberculosis H37Rv [2]; po, 100 mg/kg",0.8 log
same,IC50,Vero cells [3],37 µM
same,Cli mouse,"female, CD1, mouse, pH 7.4",8 mL.min^–1.g^–1
same,scaled Clpre,"female, CD1, mouse, pH 7.4",4.56 L/h/kg
same,CL mouse MEAN,"mouse, microsomes",8.159 mL/min/g
same,in vitro mouse Clint,"mouse, microsomes",8 mL/min/g
same,CLB,[4],1.74 L/h/kg
same,Clb,"[5]; iv, 1 mg/kg",30
same,T1/2,"[5]; iv, 1 mg/kg",0.5 h
same,Cmax,"[5]; male, po, 5 mg/kg",0.14 µg/mL
same,F,"[5]; male, po, 5 mg/kg",12%
same,AUC 0–24,"[5]; male, po, 5 mg/kg, 24 h",19
same,P-glycoprotein (P-gp) efflux (in words),[6]; MDCK-MDR1,no likely P-glycoprotein (P-gp) efflux issues
same,permeability (in words),[6]; MDCK-MDR1,good permeability
same,P-gp Efflux B→ A/A → B,"[6]; dog, MDCK",0.8
same,solubility in HTSA (in words),[7],poor solubility
same,"% Peak Area, metabolite A N or S-oxide",[8],3%
same,"% Peak Area, metabolite B De-ethylation + oxidation",[8],3%
same,"% Peak Area, metabolite C De-ethylation",[8],2%
same,"% Peak Area, metabolite D Oxidation (x3)",[8],6%
same,"% Peak Area, metabolite E Hydroxylation",[8],27%
same,IC50,Vero cells [9],39 µM
same,AUC,"in vivo [10]; iv, 3 mg/kg",1.73 µg·h/mL
same,bioavailability,"in vivo [10]; po, 10 mg/kg",18%
same,AUC(0-t) at 24 h,"in vivo [11]; iv, 1 mg/kg",0.55 µg·h/mL
same,Tmax,"in vivo [11]; male, po, 5 mg/kg",1 h
same,AUC(0-t) at 24 h,"in vivo [11]; male, po, 5 mg/kg",0.583 µg·h/mL
same,Cmax,"in vivo [11]; male, po, 5 mg/kg, Cmax",0.2 µg/mL
same,chromatographic logD,physchem [12],2.68
same,Papp A→B,in vitro,250 nm/s
same,Papp B→A,in vitro,200 nm/s
same,solubility,physchem [13]; pH 2,2 µg/mL
same,solubility,physchem [13]; pH 6,1 µg/mL
same,solubility,physchem [13]; pH 7.4,1 µg/mL
CCc1nc2ccc(Cl)cn2c1C(=O)NCc1ccc(N2CCC(c3ccc(OC(F)(F)F)cc3)CC2)cc1 [Compound Q203],ATP levels versus growth (OD590),M. tuberculosis H37Rv [14],depletion of ATP occurred at lower concentrations than required to inhibit growth
CO[C@H]1/C=C/O[C@@]2(C)Oc3c(C)c(O)c4c(O)c(c(/C=N/N5CCN(C)CC5)c(O)c4c3C2=O)NC(=O)/C(C)=C\C=C\[C@H](C)[C@H](O)[C@@H](C)[C@@H](O)[C@@H](C)[C@H](OC(C)=O)[C@@H]1C [rifampicin],ATP levels versus growth (OD590),M. tuberculosis H37Rv [14],correlated with growth
